According to PubChem BioAssay (NCI):
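96-well plates; 48 h exposure; 5 concentrations. Endpoints by linear interpolation between flanking doses. Not reached: highest tested concentration assigned. Abbreviation: GI50, concentration required for 50% inhibition of growth. TGI: total growth inhibition.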

Legend:
Experiment in all cases: NCI-60 cell line screen, 48 h
[1] = test system: 786-0 renal
[2] = test system: A549 NSCLC
[3] = test system: HCC-2998 colon
[4] = test system: NCI-H23 lung
[5] = test system: NCI-H522 lung
[6] = test system: OVCAR-3 ovarian
[7] = test system: SF-295 CNS
[8] = test system: RXF 393 renal
[9] = test system: SK-MEL-2 melanoma

| Structure (SMILES) | TGI [1] [µM] | TGI [2] [µM] | TGI [3] [µM] | TGI [4] [µM] | TGI [5] [µM] | TGI [6] [µM] | TGI [7] [µM] | GI50 [1] [µM] | GI50 [2] [µM] | GI50 [3] [µM] | GI50 [4] [µM] | GI50 [5] [µM] | GI50 [6] [µM] | GI50 [8] [µM] | TGI [8] [µM] | GI50 [7] [µM] | GI50 [9] [µM] | TGI [9] [µM] |
| --- | --- | --- | --- | --- | --- | --- | --- | --- | --- | --- | --- | --- | --- | --- | --- | --- | --- | --- |
| C/C(=N\NS(=O)(=O)c1ccc(C)cc1)c1ccc[n+]([O-])n1 | > 100 | > 100 | > 100 | > 100 | > 100 | > 100 | > 100 |  |  |  |  |  |  |  |  |  |  |  |
| CC(C)OP(=O)(OC(C)C)C(N(C)C)P(=O)(OC(C)C)OC(C)C.[Cl][Sn]([Cl])([Cl])[c]1ccccc1 | 12.3 | 5.28 | 7.46 | 31.3 | 9.78 | 53 | 9.98 | 2.84 | 2.21 | 1.79 | 4.84 | 3.02 | 5.64 | 2.81 | 11.4 | 4.15 | 2.15 | 5.3 |
| CC(C)OP(=O)(CP(=O)(OC(C)C)OC(C)C)OC(C)C.[CH3][Sn]([Br])([Br])[Br] | > 100 | > 100 | > 100 | > 100 | > 100 | > 100 | > 100 | > 100 | > 100 | > 100 | > 100 | > 100 | > 100 | > 100 | > 100 | > 100 | > 100 | > 100 |
| c1ccc(SCCCC(Sc2ccccc2)Sc2ccccc2)cc1 | > 100 | > 100 | > 100 | > 100 |  | > 100 | > 100 |  |  |  |  |  |  |  | > 100 |  |  | > 100 |
| COc1cc2c3c(c1OC)-c1ccccc1C(C(OC(C)=O)c1ccccc1)C3N(C)CC2 (centres undefined) | > 100 | > 100 | > 100 | > 100 | > 100 | > 100 | > 100 |  |  |  |  |  |  |  | > 100 |  |  | 83.7 |
| Cc1nnc2n1N=C(CC(=O)c1ccc(O)cc1O)CN2N | > 100 | > 100 | > 100 | > 100 |  |  | > 100 |  |  |  |  |  |  |  | > 100 |  |  | > 100 |
| CC1=CC2=C(C)C3(CC3)[C@@](C)(O)C(=O)C2=C1 | 0.517 | > 0.975 | 0.406 | 0.186 | 0.296 | 0.352 | 0.571 |  |  |  |  |  |  |  | 0.246 |  |  | 0.365 |
| CC(=O)NC1C(OCc2ccccc2)OC(COC(=O)CCCCCCCCCCNC(=O)c2cccc3c(=O)c4ccccc4[nH]c23)C(O)C1OC(C)C(=O)NC(C)C(=O)NC(CCC(N)=O)C(N)=O (centres undefined) | > 100 | > 100 |  | > 100 | > 100 | > 100 | > 100 |  |  |  |  |  |  |  |  |  |  | > 100 |
| Clc1ccc2c(Cl)ncnc2c1 | > 100 | > 100 | > 100 | > 100 | > 100 | > 100 | > 100 |  |  |  |  |  |  |  |  |  |  | > 100 |
| Brc1ccc2c(c1)C1(c3cc(Br)ccc3-2)c2cc(Br)ccc2-c2ccc(Br)cc21 | > 100 | > 100 | > 100 | > 100 | > 100 | > 100 | > 100 |  |  |  |  |  |  |  | > 100 |  |  | > 100 |
| COc1ccc2cccc(C(=N)c3ccc(C)c4c3CCC4)c2c1 | 21.9 | 26.8 | 23.1 | 19.6 | 10.1 | 17.6 | 17.7 |  |  |  |  |  |  |  | 26.3 |  |  | 24.4 |
| COc1ccc([Se]c2ccc(OC)cc2OC)c(OC)c1 | > 100 | > 100 |  | > 100 | 38.2 | > 100 | 33.7 |  |  |  |  |  |  |  | 59.5 |  |  | 92.2 |
| CC1CCC(O)C(C(O)CC2CC(=O)N(C)C(=O)C2)C1 (centres undefined) | > 100 | > 100 | > 100 | > 100 | > 100 | > 100 | > 100 |  |  |  |  |  |  |  | > 100 |  |  |  |
| O=C1[C@H]2C(c3ccccc3)=NN(C(=O)c3ccccc3)[C@H]2C(=O)N1c1ccccc1 | > 100 | > 100 |  | > 100 | > 100 | > 100 | > 100 |  |  |  |  |  |  |  | > 100 |  |  | > 100 |
| COc1cc2ccn3c4cc(OC)c(OC)cc4cc3c2cc1OC | > 100 | > 100 | > 100 | > 100 | > 100 | > 100 | > 100 |  |  |  |  |  |  |  |  |  |  | > 100 |
| O=C1c2ccccc2-c2cc3ccccc3c(=O)n21 | > 100 | > 100 | > 100 | > 100 | > 100 | > 100 | > 100 |  |  |  |  |  |  |  |  |  |  | > 100 |
| CCC1OCCN1C(C)C (centres undefined) | > 100 | > 100 | > 100 | > 100 | > 100 |  | > 100 |  |  |  |  |  |  |  | > 100 |  |  | > 100 |

| Structure (SMILES) | TGI [1] [µM] | TGI [2] [µM] | TGI [3] [µM] | TGI [4] [µM] | TGI [5] [µM] | TGI [6] [µM] | TGI [7] [µM] | GI50 [1] [µM] | GI50 [2] [µM] | GI50 [3] [µM] | GI50 [4] [µM] | GI50 [5] [µM] | GI50 [6] [µM] | GI50 [8] [µM] | TGI [8] [µM] | GI50 [7] [µM] | GI50 [9] [µM] | TGI [9] [µM] |
| --- | --- | --- | --- | --- | --- | --- | --- | --- | --- | --- | --- | --- | --- | --- | --- | --- | --- | --- |
| COC(=O)C12CC(C3CC31)C1CC12 (centres undefined) | > 100 | > 100 | > 100 | > 100 |  | > 100 | > 100 |  |  |  |  |  |  |  |  |  |  |  |
| Cc1ccc(NC(=O)CCC(=O)C2CC(=O)CC/C2=N\NC(=O)c2cc3ccccc3cc2O)cc1C (centres undefined) | > 100 | > 100 | 50.1 | 38 | 39.5 | 45.6 | > 100 |  |  |  |  |  |  |  |  |  |  | 82.7 |
| O=c1c2ccccc2nc(-c2ccccc2)n1NCC1(O)OCC(O)C(O)C1O (centres undefined) | > 100 | > 100 | > 100 | > 100 | > 100 | > 100 | > 100 |  |  |  |  |  |  |  |  |  |  | > 100 |
| COC(=O)/C(C#N)=C1\N=NNN1CCCN1CCOCC1 | > 100 | > 100 | > 100 | > 100 | > 100 | > 100 | > 100 |  |  |  |  |  |  |  | > 100 |  |  |  |
| O=C1OCC(C(=O)c2cccc(O)c2)C1=O (centres undefined) | > 100 | > 100 | > 100 | > 100 | > 100 | > 100 | > 100 |  |  |  |  |  |  |  | > 100 |  |  |  |
| COC(=O)c1c(C)oc2ccc(OC(C)=O)cc12 | > 100 | > 100 | > 100 | > 100 | > 100 | > 100 | > 100 |  |  |  |  |  |  |  | > 100 |  |  | > 100 |
| CN1CC2(CCCCC2)C(O)C12C=CCCC2 (centres undefined) | > 100 | > 100 | > 100 | > 100 | > 100 | > 100 | > 100 |  |  |  |  |  |  |  | > 100 |  |  | > 100 |
| Cc1cc(N(CCC#N)S(=O)(=O)c2ccccc2)ccc1C=O | > 100 | > 100 | > 100 | > 100 | > 100 | > 100 | > 100 |  |  |  |  |  |  |  | > 100 |  |  | > 100 |
| CCOC(=O)CCC1(C(=O)OC)CCCC1=O (centres undefined) | > 100 | > 100 | > 100 | > 100 | > 100 | > 100 | > 100 |  |  |  |  |  |  |  | > 100 |  |  | > 100 |
| COC(=O)C(CC=O)C(=O)C(=O)Nc1cccc(C(F)(F)F)c1 (centres undefined) | > 100 | > 100 | > 100 | > 100 | > 100 | > 100 | > 100 |  |  |  |  |  |  |  | > 100 |  |  | > 100 |
| Oc1cc2cc(-c3ccccc3)[nH]c2c2ccccc12 | > 100 | > 100 | > 100 | 36.6 | 37.4 | > 61.4 | > 24.5 |  |  |  |  |  |  |  | > 78.3 |  |  | 43.5 |
| c1ccc2c(c1)CCCc1cc3ccccc3nc1-2 | > 100 | > 100 | > 100 | > 100 | > 100 | > 100 | > 100 |  |  |  |  |  |  |  |  |  |  | > 100 |
| CC1OC(=O)N(CCCC=C2SCCCS2)C1=O (centres undefined) | > 100 | > 100 |  | > 100 | > 100 | > 100 | > 100 |  |  |  |  |  |  |  | > 100 |  |  | > 100 |
| CCOC(=O)c1cnc2[nH]c(=O)c3ccccc3n2c1=O | > 100 | > 100 |  | > 100 | > 100 | > 100 | > 100 |  |  |  |  |  |  |  | > 100 |  |  | > 100 |
| CC(=O)[CH-]C(=O)c1ccccc1.CC(=O)[CH-]C(=O)c1ccccc1.[O]=[U+2]=[O] | > 100 | > 100 | 65.4 | > 100 | > 100 | > 100 | > 100 | 40.2 | 31 | 18.7 | 46.9 | 65.2 | 88.2 | 34 | > 100 | 6.55 | 37.4 | > 100 |
| O=C(CCCCCCCCC(=O)OCC1OC(n2cnc3c(=O)[nH]cnc32)C(O)C1O)OCC1OC(n2cnc3c(=O)[nH]cnc32)C(O)C1O (centres undefined) | > 100 | > 100 | > 100 | > 100 | > 100 | > 100 | > 100 |  |  |  |  |  |  |  | > 100 |  |  | > 100 |
| O=C(CCCCCCCCCCc1ccccc1)c1c(O)cccc1O | 32.3 | 76.1 | 44.3 | 35.9 | 42.4 | 63.1 | 47 |  |  |  |  |  |  |  | 39.9 |  |  | 31.3 |
